Measurements: patent US12077503B2, “Substituted cyclic amides and their use as herbicides” (FMC CORPORATION, priority 2015, dated 2024)

Key:
Type in all cases: in vivo
corn (Zea mays) = assay: Test A postemergence
Method in brief: (§1)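 Visual injury, scored on a 0–100 scale relative to untreated controls, was recorded about 10 d after application. Treatments were a preemergence soil spray over planted seeds or a postemergence spray on plants at the one- to two-leaf stage, 2 to 10 cm tall, all in loam soil–sand blend in the greenhouse.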

[1] = tested on: blackgrass (Alopecurus myosuroides); assay: Test A postemergence
Method in brief: as §1

[2] = tested on: barnyardgrass (Echinochloa crus-galli); assay: Test A postemergence
Method in brief: as §1

[3] = tested on: pigweed (Amaranthus retroflexus); assay: Test A postemergence
Method in brief: as §1

[4] = tested on: wheat (Triticum aestivum); assay: Test A postemergence
Method in brief: as §1

[5] = tested on: giant foxtail (Setaria faberii); assay: Test A postemergence
Method in brief: as §1

[6] = tested on: ryegrass, Italian (Italian ryegrass, Lolium multiflorum); assay: Test A postemergence
Method in brief: as §1

[7] = tested on: Galium (catchweed bedstraw, Galium aparine); assay: Test A postemergence
Method in brief: as §1

Kochia (Kochia scoparia) [8] = assay: Test A postemergence
Method in brief: as §1

[9] = tested on: ragweed (common ragweed, Ambrosia elatior); assay: Test A postemergence
Method in brief: as §1

[10] = tested on: barnyardgrass (Echinochloa crus-galli); assay: Test C flooded paddy test; conditions: Flood; for Plant response rating (scale of 0 to 100), Barnyardgrass: 0 is no effect, 100 is complete control
Method in brief: (§2)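 Scores express visual response relative to untreated controls, 0 meaning no effect and 100 complete control, assessed 13 to 15 d after treatment in the greenhouse. Compound went into water flooded 3 cm above soil around 2-leaf plants.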

[11] = tested on: sedge, umbrella (small-flower umbrella sedge, Cyperus difformis); assay: Test C flooded paddy test; conditions: Flood; for Plant response rating (scale of 0 to 100), Sedge, Umbrella: 0 is no effect, 100 is complete control
Method in brief: as §2

[12] = tested on: ducksalad (Heteranthera limosa); assay: Test C flooded paddy test; conditions: Flood; for Plant response rating (scale of 0 to 100), Ducksalad: 0 is no effect, 100 is complete control
Method in brief: as §2

rice (Oryza sativa) = assay: Test C flooded paddy test; conditions: Flood; for Plant response rating (scale of 0 to 100), Rice: 0 is no effect, 100 is complete control
Method in brief: as §2

[13] = tested on: barnyardgrass (Echinochloa crus-galli); assay: Test A preemergence
Method in brief: as §1

[14] = tested on: pigweed (Amaranthus retroflexus); assay: Test A preemergence
[15] = tested on: giant foxtail (Setaria faberii); assay: Test A preemergence
Method in brief: as §1

[16] = tested on: ryegrass, Italian (Italian ryegrass, Lolium multiflorum); assay: Test A preemergence
Method in brief: as §1

Kochia (Kochia scoparia) [17] = assay: Test A preemergence
Method in brief: as §1

[18] = tested on: ragweed (common ragweed, Ambrosia elatior); assay: Test A preemergence
Method in brief: as §1

[19] = tested on: barnyardgrass (Echinochloa crus-galli); assay: Test B flooded paddy test; conditions: Flood, 250 g ai/ha; 0 to 100 scale where 0 is no effect and 100 is complete control; 13 to 15 d
Method in brief: (§3)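 Visual ratings (0 none to 100 complete control) are relative to untreated plants, taken 13–15 d after treatment in a greenhouse. Test material went straight into floodwater standing 3 cm above the soil, kept constant, on plants at the 2-leaf stage.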

[20] = tested on: sedge, umbrella (small-flower umbrella sedge, Cyperus difformis); assay: Test B flooded paddy test; conditions: Flood, 250 g ai/ha; 0 to 100 scale where 0 is no effect and 100 is complete control; 13 to 15 d
Method in brief: as §3

rice (Oryra sativa) = assay: Test B flooded paddy test; conditions: Flood, 250 g ai/ha; 0 to 100 scale where 0 is no effect and 100 is complete control; 13 to 15 d
Method in brief: as §3

[21] = tested on: ducksalad (Heteranthera limosa); assay: Test B flooded paddy test; conditions: Flood, 250 g ai/ha; 0 to 100 scale where 0 is no effect and 100 is complete control; 13 to 15 d
Method in brief: as §3

[22] = 125 g ai/ha, postemergence, visual rating after approx. 10 d, 0 to 100 scale (0 no effect, 100 complete control)
[23] = Postemergence, 500 g ai/ha, 0 to 100 scale where 0 is no effect and 100 is complete control
[24] = 500 g ai/ha, postemergence, visual injury, 0 to 100 scale (0 no effect, 100 complete control), approx. 10 d
[25] = 31 g ai/ha, scale 0 to 100 (0 no effect, 100 complete control), 13 to 15 d
[26] = 125 g ai/ha, Preemergence, visual injury after approximately 10 d, 0 to 100 scale where 0 is no effect and 100 is complete control
[27] = 500 g ai/ha, preemergence, 0 to 100 scale, 0 = no effect, 100 = complete control
[28] = Preemergence, 500 g ai/ha, visual injury approx. 10 d

CN1CC(c2cccc(C(F)(F)F)c2)C(C(=O)Nc2ccccc2C(F)(F)F)C1=O (stereo not shown) [Compound 638]
Plant response rating, Corn (corn (Zea mays); [22]): 70
Plant response rating, Corn (corn (Zea mays); [23]): 80
Plant response rating, Blackgrass [1, 22]: 50
Plant response rating, Blackgrass [1, 23]: 70
Plant response rating, Barnyardgrass [2, 22]: 90
Plant response rating, Barnyardgrass [2, 23]: 90
Plant response rating, Pigweed [3, 22]: 20
Plant response rating, Pigweed [3, 24]: 50
Plant response rating, Wheat [4, 22]: 60
Plant response rating, Wheat [4, 24]: 70
Plant response rating, Foxtail, Giant [5, 22]: 90
Plant response rating, Foxtail, Giant [5, 24]: 90
Plant response rating, Ryegrass, Italian [6, 22]: 30
Plant response rating, Ryegrass, Italian [6, 24]: 40
Plant response rating, Galium [7, 22]: 60
Plant response rating, Galium [7, 24]: 60
Plant response rating, Kochia (Kochia (Kochia scoparia) [8]; [22]): 20
Plant response rating, Kochia (Kochia (Kochia scoparia) [8]; [24]): 40
Plant response rating, Ragweed [9, 22]: 0
Plant response rating, Ragweed [9, 24]: 0
Plant response rating, Barnyardgrass [10, 25]: 45
Plant response rating (scale of 0 to 100), Barnyardgrass ([10]; 62 g ai/ha): 55
Plant response rating (scale of 0 to 100), Barnyardgrass ([10]; 125 g ai/ha): 60
Plant response rating (scale of 0 to 100), Barnyardgrass ([10]; 250 g ai/ha): 75
Plant response rating, Sedge, Umbrella [11, 25]: 0
Plant response rating (scale of 0 to 100), Sedge, Umbrella ([11]; 62 g ai/ha): 0
Plant response rating (scale of 0 to 100), Sedge, Umbrella ([11]; 125 g ai/ha): 0
Plant response rating (scale of 0 to 100), Sedge, Umbrella ([11]; 250 g ai/ha): 0
Plant response rating, Ducksalad [12, 25]: 0
Plant response rating (scale of 0 to 100), Ducksalad ([12]; 62 g ai/ha): 40
Plant response rating (scale of 0 to 100), Ducksalad ([12]; 125 g ai/ha): 60
Plant response rating (scale of 0 to 100), Ducksalad ([12]; 250 g ai/ha): 75
Plant response rating, Rice (rice (Oryza sativa); [25]): 20
Plant response rating (scale of 0 to 100), Rice (rice (Oryza sativa); 62 g ai/ha): 25
Plant response rating (scale of 0 to 100), Rice (rice (Oryza sativa); 125 g ai/ha): 25
Plant response rating (scale of 0 to 100), Rice (rice (Oryza sativa); 250 g ai/ha): 25
Plant response rating, Barnyardgrass [13, 26]: 90
Plant response rating, Barnyardgrass [13, 27]: 90
Plant response rating, Pigweed [14, 26]: 40
Plant response rating, Pigweed [14, 27]: 60
Plant response rating, Foxtail, Giant [15, 26]: 90
Plant response rating, Foxtail, Giant [15, 27]: 100
Plant response rating, Ryegrass, Italian [16, 26]: 30
Plant response rating, Ryegrass, Italian [16, 27]: 90
Plant response rating, Kochia (Kochia (Kochia scoparia) [17]; [26]): 0
Plant response rating, Kochia (Kochia (Kochia scoparia) [17]; [27]): 20
Plant response rating, Ragweed [18, 26]: 30
Plant response rating, Ragweed [18, 27]: 60
Plant response rating, Barnyardgrass [19]: 85
Plant response rating, Sedge, Umbrella [20]: 0
Plant response rating, Rice (rice (Oryra sativa)): 10
Plant response rating, Ducksalad [21]: 100

CN1CC(c2ccc(F)c(C(F)(F)F)c2)C(C(=O)Nc2ccccc2F)C1=O (stereo not shown) [Compound 611]
Plant response rating, Corn (corn (Zea mays); [22]): 50
Plant response rating, Corn (corn (Zea mays); [23]): 70
Plant response rating, Blackgrass [1, 22]: 50
Plant response rating, Blackgrass [1, 23]: 70
Plant response rating, Barnyardgrass [2, 22]: 90
Plant response rating, Barnyardgrass [2, 23]: 90
Plant response rating, Pigweed [3, 22]: 20
Plant response rating, Pigweed [3, 23]: 30
Plant response rating, Wheat [4, 22]: 40
Plant response rating, Wheat [4, 23]: 60
Plant response rating, Foxtail, Giant [5, 22]: 90
Plant response rating, Foxtail, Giant [5, 23]: 90
Plant response rating, Ryegrass, Italian [6, 22]: 40
Plant response rating, Ryegrass, Italian [6, 23]: 70
Plant response rating, Galium [7, 22]: 50
Plant response rating, Galium [7, 23]: 60
Plant response rating, Kochia (Kochia (Kochia scoparia) [8]; [22]): 60
Plant response rating, Kochia (Kochia (Kochia scoparia) [8]; [23]): 70
Plant response rating, Ragweed [9, 22]: 0
Plant response rating, Ragweed [9, 23]: 30
Plant response rating (scale of 0 to 100), Barnyardgrass ([10]; 31 g ai/ha): 0
Plant response rating (scale of 0 to 100), Barnyardgrass ([10]; 62 g ai/ha): 0
Plant response rating (scale of 0 to 100), Barnyardgrass ([10]; 125 g ai/ha): 60
Plant response rating (scale of 0 to 100), Barnyardgrass ([10]; 250 g ai/ha): 75
Plant response rating (scale of 0 to 100), Sedge, Umbrella ([11]; 31 g ai/ha): 0
Plant response rating (scale of 0 to 100), Sedge, Umbrella ([11]; 62 g ai/ha): 0
Plant response rating (scale of 0 to 100), Sedge, Umbrella ([11]; 125 g ai/ha): 0
Plant response rating (scale of 0 to 100), Sedge, Umbrella ([11]; 250 g ai/ha): 0
Plant response rating (scale of 0 to 100), Ducksalad ([12]; 31 g ai/ha): 0
Plant response rating (scale of 0 to 100), Ducksalad ([12]; 62 g ai/ha): 0
Plant response rating (scale of 0 to 100), Ducksalad ([12]; 125 g ai/ha): 80
Plant response rating (scale of 0 to 100), Ducksalad ([12]; 250 g ai/ha): 95
Plant response rating (scale of 0 to 100), Rice (rice (Oryza sativa); 31 g ai/ha): 0
Plant response rating (scale of 0 to 100), Rice (rice (Oryza sativa); 62 g ai/ha): 0
Plant response rating (scale of 0 to 100), Rice (rice (Oryza sativa); 125 g ai/ha): 0
Plant response rating (scale of 0 to 100), Rice (rice (Oryza sativa); 250 g ai/ha): 15
Plant response rating, Barnyardgrass [13, 26]: 90
Barnyardgrass plant response rating (0 to 100 scale, 0 is no effect, 100 is complete control) [13, 28]: 90
Plant response rating, Pigweed [14, 26]: 70
Pigweed plant response rating (0 to 100 scale, 0 is no effect, 100 is complete control) [14, 28]: 80
Plant response rating, Foxtail, Giant [15, 26]: 90
Foxtail, Giant plant response rating (0 to 100 scale, 0 is no effect, 100 is complete control) [15, 28]: 90
Plant response rating, Ryegrass, Italian [16, 26]: 60
Ryegrass, Italian plant response rating (0 to 100 scale, 0 is no effect, 100 is complete control) [16, 28]: 60
Plant response rating, Kochia (Kochia (Kochia scoparia) [17]; [26]): 40
Kochia plant response rating (0 to 100 scale, 0 is no effect, 100 is complete control) (Kochia (Kochia scoparia) [17]; [28]): 60
Plant response rating, Ragweed [18, 26]: 0
Plant response rating, Barnyardgrass [19]: 85
Plant response rating, Sedge, Umbrella [20]: 0
Plant response rating, Rice (rice (Oryra sativa)): 40
Plant response rating, Ducksalad [21]: 100
